The target in assay [1] is T1, human recombinant HDAC6 (Homo sapiens, UniProt Q9UBN7).
T1 construct: purchased Calbiochem Inc. 382180
T1 sequence (Q9UBN7 1-1215): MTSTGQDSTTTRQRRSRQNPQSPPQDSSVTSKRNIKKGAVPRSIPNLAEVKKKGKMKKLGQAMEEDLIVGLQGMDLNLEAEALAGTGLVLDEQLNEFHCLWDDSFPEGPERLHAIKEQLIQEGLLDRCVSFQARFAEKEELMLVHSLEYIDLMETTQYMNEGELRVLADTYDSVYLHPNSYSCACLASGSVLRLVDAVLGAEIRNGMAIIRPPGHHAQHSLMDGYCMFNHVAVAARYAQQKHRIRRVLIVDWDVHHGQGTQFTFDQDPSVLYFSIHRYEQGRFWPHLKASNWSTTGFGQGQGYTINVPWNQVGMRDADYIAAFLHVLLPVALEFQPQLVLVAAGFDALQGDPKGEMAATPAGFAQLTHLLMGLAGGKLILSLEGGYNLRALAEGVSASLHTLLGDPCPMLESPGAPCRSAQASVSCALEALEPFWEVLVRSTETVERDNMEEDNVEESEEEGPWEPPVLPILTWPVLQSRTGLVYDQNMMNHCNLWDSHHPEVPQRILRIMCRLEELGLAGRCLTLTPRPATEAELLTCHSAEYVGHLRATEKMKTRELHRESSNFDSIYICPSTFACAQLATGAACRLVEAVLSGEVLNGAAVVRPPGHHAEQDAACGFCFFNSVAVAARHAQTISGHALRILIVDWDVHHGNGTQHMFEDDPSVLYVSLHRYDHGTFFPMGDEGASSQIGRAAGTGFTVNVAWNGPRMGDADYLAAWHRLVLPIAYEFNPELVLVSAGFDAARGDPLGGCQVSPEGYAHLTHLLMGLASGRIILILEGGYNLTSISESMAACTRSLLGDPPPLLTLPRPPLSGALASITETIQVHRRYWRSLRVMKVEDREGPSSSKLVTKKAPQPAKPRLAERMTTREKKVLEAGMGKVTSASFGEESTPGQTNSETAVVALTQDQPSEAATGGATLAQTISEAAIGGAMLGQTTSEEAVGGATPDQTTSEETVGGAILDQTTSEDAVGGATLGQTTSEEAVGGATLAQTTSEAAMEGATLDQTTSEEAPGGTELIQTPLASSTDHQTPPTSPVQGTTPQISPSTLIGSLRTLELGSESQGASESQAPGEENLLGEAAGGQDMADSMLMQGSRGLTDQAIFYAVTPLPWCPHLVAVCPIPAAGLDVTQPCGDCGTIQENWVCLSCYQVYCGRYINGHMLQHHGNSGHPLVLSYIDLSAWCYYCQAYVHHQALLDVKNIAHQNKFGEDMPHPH
As to the kind of experiment: HDAC6 enzyme activity inhibition (HDAC Fluorimetric Drug Discovery Kit). Format: biochemical. The method, boiled down:
(§1)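 Compounds in 5-fold dilution series were incubated with […] enzyme and 10 μM substrate at 30° C for 60 minutes. Fluor de Lys Developer II was then added for 30 minutes to stop the reaction and develop the fluorescent signal.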

Assay [2] concerns the target T2, human recombinant HDAC1 (Homo sapiens, UniProt Q13547).
T2 construct: purchased Enzo Life Science, Inc. BML-SE456
As to the kind of experiment: HDAC1 enzyme activity inhibition (HDAC Fluorimetric Drug Discovery Kit). The note with it: read-out: HDAC1. Format: biochemical. The method, boiled down:
as §1

The mark [3] stands for this setting: human recombinant HDAC6, same protocol as HDAC1.
[4] abbreviates: human recombinant HDAC1, Fluor de Lys substrate, 30° C. 60 minutes.
Where [5] appears, read: human recombinant HDAC6, IC50 calculated with GraphPad Prism.
Where [6] appears, read: human recombinant HDAC1, IC50 calculated with GraphPad Prism.

The values that follow come from patent publication US20230257372A1 (CHONG KUN DANG PHARMACEUTICAL CORP., priority 2020, published 2023).

Read-outs that look alike come from different tables or passages of the source.

T2 sequence (Q13547 whole entry): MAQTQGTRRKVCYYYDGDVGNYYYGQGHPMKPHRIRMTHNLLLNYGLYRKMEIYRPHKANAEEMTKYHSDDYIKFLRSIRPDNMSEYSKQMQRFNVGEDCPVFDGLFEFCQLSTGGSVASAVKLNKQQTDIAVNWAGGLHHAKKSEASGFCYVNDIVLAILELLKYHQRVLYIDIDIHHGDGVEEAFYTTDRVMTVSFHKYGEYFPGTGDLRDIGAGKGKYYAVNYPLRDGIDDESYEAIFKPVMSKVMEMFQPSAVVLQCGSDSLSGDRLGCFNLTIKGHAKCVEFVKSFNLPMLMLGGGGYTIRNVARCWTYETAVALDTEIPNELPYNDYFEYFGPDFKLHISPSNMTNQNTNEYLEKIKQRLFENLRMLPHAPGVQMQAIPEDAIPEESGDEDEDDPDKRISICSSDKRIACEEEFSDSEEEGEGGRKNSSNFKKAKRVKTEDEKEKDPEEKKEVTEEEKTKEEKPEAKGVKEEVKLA

As to `C[C@@H]1CN(c2cccc(-c3cn(Cc4ncc(-c5nnc(C(F)F)o5)cc4F)nn3)c2)C[C@H](C)N1C` [Compound 18961, 2-(difluoromethyl)-5-(5-fluoro-6-((4-(3-((3R,5S)-3,4,5-trimethylpiperazin-1-yl)phenyl)-1H-1,2,3-triazol-1-yl)methyl)pyridin-3-yl)-1,3,4-oxadiazole], the “HDAC6 selectivity (fold)” value in assay [1] (HDAC6 over HDAC1) is 782 fold. The IC50 in assay [1] (setting [3]) is 0.0639 µM; in assay [2] (setting [4]), over 50 µM.

On to `FC(F)(F)c1nnc(-c2ccc(Cn3nnc(-c4ccccc4)n3)nc2)o1` [Compound 4235], for which the “HDAC6 selectivity (fold)” value in assay [1] (HDAC1 IC50 / HDAC6 IC50) amounted to 290 fold. Besides, the values for the IC50 in assay [1] (setting [5]) and in assay [2] (setting [6]) were 0.172 µM and over 50 µM, respectively.

Take `CN(C)Cc1cccc(-c2cn(Cc3ncc(-c4nnc(C(F)F)o4)cc3F)nn2)c1Cl` [Compound 19088, 1-(2-chloro-3-(1-((5-(5-(difluoromethyl)-1,3,4-oxadiazol-2-yl)-3-fluoropyridin-2-yl)methyl)-1H-1,2,3-triazol-4-yl)phenyl)-N,N-dimethylmethanamine]: the “HDAC6 selectivity (fold)” value in assay [1] (HDAC6 over HDAC1) is on record as 639 fold. Moreover, the values for the IC50 in assay [1] (setting [3]) and in assay [2] (setting [4]) were 0.0782 µM and over 50 µM, respectively.

On to `CN1CCC(c2ccc(-c3cn(Cc4ncc(-c5nnc(C(F)F)o5)cc4F)nn3)cc2)CC1` [Compound 19087, 2-(difluoromethyl)-5-(5-fluoro-6-((4-(4-(1-methylpiperidin-4-yl)phenyl)-1H-1,2,3-triazol-1-yl)methyl)pyridin-3-yl)-1,3,4-oxadiazole], for which, in assay [1] (HDAC6 over HDAC1), the “HDAC6 selectivity (fold)” value came out at 650 fold. The IC50 in assay [1] (setting [3]) was 0.0769 µM; in assay [2] (setting [4]) it was over 50 µM.

With `CN(C)CCC(=O)Nc1cccc(-c2cn(Cc3ccc(-c4nnc(C(F)F)o4)cn3)nn2)c1` [Compound 4229, N-(3-(1-((5-(5-(difluoromethyl)-1,3,4-oxadiazol-2-yl)pyridin-2-yl)methyl)-1H-1,2,3-triazol-4-yl)phenyl)-3-(dimethylamino)propanamide], the “HDAC6 selectivity (fold)” value in assay [1] (HDAC1 IC50 / HDAC6 IC50) was found to be 1742 fold. The results for the IC50 in assay [1] (setting [5]) and in assay [2] (setting [6]) were 0.0287 µM and over 50 µM, respectively.

For `CC1CCN(Cc2cccc(-c3cn(Cc4ncc(-c5nnc(C(F)F)o5)cc4F)nn3)c2)CC1` [Compound 18459], the “HDAC6 selectivity (fold)” value in assay [1] (HDAC6 over HDAC1) was 778 fold. The values for the IC50 in assay [1] (setting [3]) and in assay [2] (setting [4]) were 0.0642 µM and over 50 µM, respectively.

With `FC(F)c1nnc(-c2ccc(Cc3nnc(-c4ccccc4)o3)cc2)o1` [Compound 3980, 2-(difluoromethyl)-5-(4-((5-phenyl-1,3,4-oxadiazol-2-yl)methyl)phenyl)-1,3,4-oxadiazole], the “HDAC6 selectivity (fold)” value in assay [1] (HDAC1 IC50 / HDAC6 IC50) is reported as 272 fold. In addition, the IC50 is 0.184 µM in assay [1] (setting [5]) and over 50 µM in assay [2] (setting [6]).

In the case of `FC(F)(F)c1nnc(-c2ccc(Cn3nnc(-c4cccs4)n3)nc2)o1` [Compound 4233], the “HDAC6 selectivity (fold)” value in assay [1] (HDAC1 IC50 / HDAC6 IC50) came to 3846 fold. Further, the values for the IC50 in assay [1] (setting [5]) and in assay [2] (setting [6]) were 0.013 µM and over 50 µM, respectively.

Consider `CN(C)Cc1ccc(-c2cn(Cc3ncc(-c4nnc(C(F)F)o4)cc3F)nn2)c(Cl)c1` [Compound 19098, 1-(3-chloro-4-(1-((5-(5-(difluoromethyl)-1,3,4-oxadiazol-2-yl)-3-fluoropyridin-2-yl)methyl)-1H-1,2,3-triazol-4-yl)phenyl)-N,N-dimethylmethanamine], for which the “HDAC6 selectivity (fold)” value in assay [1] (HDAC6 over HDAC1) was 1315 fold. The IC50 is 0.038 µM in assay [1] (setting [3]) and over 50 µM in assay [2] (setting [4]).

As to `Fc1cc(-c2nnc(C(F)F)o2)ccc1Cn1cc(-c2cccc(NC3CCCCC3)c2)nn1` [Compound 4330, N-cyclohexyl-3-(1-(4-(5-(difluoromethyl)-1,3,4-oxadiazol-2-yl)-2-fluorobenzyl)-1H-1,2,3-triazol-4-yl)aniline], the “HDAC6 selectivity (fold)” value in assay [1] (HDAC1 IC50 / HDAC6 IC50) amounted to 268 fold. For the same compound, the values for the IC50 in assay [1] (setting [5]) and in assay [2] (setting [6]) were 0.186 µM and over 50 µM, respectively.

For `CN(C)c1cccc(-c2cn(Cc3ccc(-c4nnc(C(F)F)o4)cc3F)nn2)c1` [Compound 3774, 3-(1-(4-(5-(difluoromethyl)-1,3,4-oxadiazol-2-yl)-2-fluorobenzyl)-1H-1,2,3-triazol-4-yl)-N,N-dimethylaniline], the “HDAC6 selectivity (fold)” value in assay [1] (HDAC1 IC50 / HDAC6 IC50) was 412 fold. In addition, the IC50 is 0.121 µM in assay [1] (setting [5]) and over 50 µM in assay [2] (setting [6]).

Regarding `FC(F)c1nnc(-c2ccc(Cn3cc(-c4ccc5c(c4)CN(C4CCC4)CC5)nn3)nc2)o1` [Compound 4212, 2-(6-((4-(2-cyclobutyl-1,2,3,4-tetrahydroisoquinolin-7-yl)-1H-1,2,3-triazol-1-yl)methyl)pyridin-3-yl)-5-(difluoromethyl)-1,3,4-oxadiazole], the “HDAC6 selectivity (fold)” value in assay [1] (HDAC1 IC50 / HDAC6 IC50) is given as 1602 fold. Further, the IC50 is 0.0312 µM in assay [1] (setting [5]) and over 50 µM in assay [2] (setting [6]).

As for `CN(C)Cc1cccc(-c2cn(Cc3ccc(-c4nnc(C(F)F)o4)cc3F)nn2)c1Cl` [Compound 18554, 1-(2-chloro-3-(1-(4-(5-(difluoromethyl)-1,3,4-oxadiazol-2-yl)-2-fluorobenzyl)-1H-1,2,3-triazol-4-yl)phenyl)-N,N-dimethylmethanamine], in assay [1] (HDAC6 over HDAC1), the “HDAC6 selectivity (fold)” value came to 1012 fold. The figures for the IC50 in assay [1] (setting [3]) and in assay [2] (setting [4]) were 0.0494 µM and over 50 µM, respectively.

With `Fc1cc(-c2nnc(C(F)F)o2)ccc1Cn1cc(-c2cccc(C3CN(C4COC4)C3)c2)nn1` [Compound 4462, 2-(difluoromethyl)-5-(3-fluoro-4-((4-(3-(1-(oxetan-3-yl)azetidin-3-yl)phenyl)-1H-1,2,3-triazol-1-yl)methyl)phenyl)-1,3,4-oxadiazole], the “HDAC6 selectivity (fold)” value in assay [1] (HDAC1 IC50 / HDAC6 IC50) worked out at 540 fold. For the same compound, the IC50 was 0.0925 µM in assay [1] (setting [5]) and over 50 µM in assay [2] (setting [6]).

For the compound `FC(F)c1nnc(-c2ccc(Cn3cc(-c4ccc(Br)nc4)nn3)nc2)o1` [Compound 4183, 2-(6-((4-(6-bromopyridin-3-yl)-1H-1,2,3-triazol-1-yl)methyl)pyridin-3-yl)-5-(difluoromethyl)-1,3,4-oxadiazole], the “HDAC6 selectivity (fold)” value in assay [1] (HDAC1 IC50 / HDAC6 IC50) is recorded as 896 fold. Besides, the results for the IC50 in assay [1] (setting [5]) and in assay [2] (setting [6]) were 0.0558 µM and over 50 µM, respectively.

Regarding `OCc1ccc(-c2cn(Cc3ccc(-c4nnc(C(F)F)o4)cc3F)nn2)nc1` [Compound 17545, (6-(1-(4-(5-(difluoromethyl)-1,3,4-oxadiazol-2-yl)-2-fluorobenzyl)-1H-1,2,3-triazol-4-yl)pyridin-3-yl)methanol], the “HDAC6 selectivity (fold)” value in assay [1] (HDAC6 over HDAC1) was 880 fold. Besides, the IC50 in assay [1] (setting [3]) was 0.0568 µM; in assay [2] (setting [4]) it was over 50 µM.

For `FC(F)c1nnc(-c2ccc(Cn3cc(-c4ccc(-n5ccnc5)cc4)nn3)nc2)o1` [Compound 4284, 2-(6-((4-(4-(1H-imidazol-1-yl)phenyl)-1H-1,2,3-triazol-1-yl)methyl)pyridin-3-yl)-5-(difluoromethyl)-1,3,4-oxadiazole], in assay [1] (HDAC1 IC50 / HDAC6 IC50), the “HDAC6 selectivity (fold)” value was 1915 fold. Also, the figures for the IC50 in assay [1] (setting [5]) and in assay [2] (setting [6]) were 0.0261 µM and over 50 µM, respectively.

For `FC1CN(Cc2cccc(-c3cn(Cc4ccc(-c5nnc(C(F)F)o5)cc4)nn3)c2)C1` [Compound 4410, 2-(difluoromethyl)-5-(4-((4-(3-((3-fluoroazetidin-1-yl)methyl)phenyl)-1H-1,2,3-triazol-1-yl)methyl)phenyl)-1,3,4-oxadiazole], in assay [1] (HDAC1 IC50 / HDAC6 IC50), the “HDAC6 selectivity (fold)” value was 781 fold. Further, the values for the IC50 in assay [1] (setting [5]) and in assay [2] (setting [6]) were 0.064 µM and over 50 µM, respectively.
